Experimental data taken from patent US5422393A, “Natriuretic hormone” (Naturon Pharmaceutical Corporation, priority 1993, dated 1995).
Values joined by “and” are separate entries in the source; they are usually repeats but may differ in a detail not shown here. Equal values may be shown once.

Target: T1, Na-K-ATPase (Bos taurus, UniProt Q08DA1)
T1 construct: 86Rb uptake
Test: Microassay: inhibition of ^86 Rb uptake by MDBK cell cultures
Assay type: cell-based, bovine
From the text: Such a cell line is available from the American Type Culture Collection, 12301 Park Lawn Drive, Rockville, Md. 20852. USA, where it is identified by the reference ATCC CCL34 (certified cell line). The preferred method of assaying bioactivity according to the present invention, described in Example II below, employs a microassay which is based upon the ability of the natriuretic compound of the present invention to inhibit ^86 Rb influx by MDBK cells grown in culture. Ouabain (10^-5 M) is used as the reference inhibitor.
The natriuretic activity of the Natriuretic Hormone can be ascertained by its effect on the uptake of ^86 Rb by MDBK ([…] Bovine Kidney Cell) cultures. […]
Approximately 200,000 MDBK cells were plated in trays containing 12 […] wells, and grown for four days at 37° C. in Dulbecco's modified Eagle media (DMEM) (Gibco #430-2100), to which was added (per liter) 3.7 g sodium bicarbonate, 5 mg phenol red, 10% fetal calf serum, 10^6 units penicillin-G sulfate, 0.1 g equivalent base streptomycin sulfate, 7.34 mg polymyxin-B sulfate, and 3.4 mg fungizone and maintained in an atmosphere of 5% CO2, 95% air. […] 0.5 ml of 5% TCA was added to each well and incubated for 10 minutes at 37° C. to release radioactivity inside the cells. […] The ^86 Rb activity was counted in a scintillation counter (Beckman LS 3-801). […] Data were recorded as cpm/mg cell protein. […]

`C[C@@H]1O[C@@H](O[C@H]2C[C@@H](O)[C@]3(CO)[C@H]4[C@H](O)C[C@]5(C)[C@@H](C6=CC(=O)OC6)CC[C@]5(O)[C@@H]4CC[C@]3(O)C2)[C@H](O)[C@H](O)[C@H]1O` [Ouabain] was tested, and the “^86 Rb uptake, cpm/mg of protein” value (10^-5 M ouabain, positive control, run in duplicate) was 17,649 cpm/mg of protein and 15,611 cpm/mg of protein and the inhibition at 10 µM (MDBK, read-out: % inhibition of ^86 Rb uptake) was 77.7%.
